In patent US20230278972A1, “SUBSTITUTED HALOALKYL SULFONANILIDE HERBICIDES” (FMC Corporation, priority 2020, published 2023):

Assays:
Assay type in all cases: in vivo
[1] = system: soybean (Glycine max); assay: Test A1 postemergence, soybean; settings: Postemergence
In short: (§1)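 Seeds were first planted into a blend of loam soil and sand and given a preemergence directed soil spray. In parallel, pots of the same soil were sown for postemergence application once plants reached 2 to 10 cm and the one- to two-leaf stage. Both used surfactant-containing non-phytotoxic solvent formulations.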

[2] = system: barnyardgrass (Echinochloa crus-galli); assay: Test B1 flooded paddy test, barnyardgrass; settings: 250 g ai/ha, Flood, applied to paddy water, 2-leaf stage, visually evaluated after 10 to 14 days
Description: (§2) A dash (-) response means no test result.

[3] = system: rice (Oryza sativa); assay: Test B1 flooded paddy test, rice; settings: 250 g ai/ha, Flood, applied to paddy water, 2-leaf stage, visually evaluated after 10 to 14 days
Description: as §2

[4] = system: Pigweed, Palmer (palmer amaranth, palmer pigweed, Amaranthus palmeri); assay: Test A1 preemergence, Pigweed, Palmer
In short: (§3)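 Plants grown in pots of loam/sand mix; preemergence = soil-directed spray on seeded pots, postemergence = spray at 1–2 leaves, height 2–10 cm; test chemicals formulated in non-phytotoxic solvent with surfactant.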

[5] = system: wheat (Triticum aestivum); assay: Test A1 preemergence, wheat
In short: as §3

[6] = system: goosegrass (Eleusine indica); assay: Test A1 preemergence, goosegrass
In short: as §3

[7] = system: Ryegrass, Italian (Italian ryegrass, Lolium multiflorum); assay: Test A1 preemergence, Ryegrass, Italian
In short: as §3

[8] = system: wheat (Triticum aestivum); assay: Test A1 postemergence, wheat; settings: Postemergence
In short: as §1

[9] = system: blackgrass (Alopecurus myosuroides); assay: Test A1 preemergence, blackgrass
In short: as §3

[10] = system: ragweed (common ragweed, Ambrosia artemisiifolia); assay: Test A1 preemergence, ragweed
In short: as §3

[11] = system: soybean (Glycine max); assay: Test A1 preemergence, soybean
In short: as §3

[12] = system: Foxtail, Giant (giant foxtail, Setaria faberi); assay: Test A1 postemergence, Foxtail, Giant; settings: Postemergence
In short: as §1

[13] = system: horseweed (Erigeron canadensis); assay: Test A1 postemergence, horseweed; settings: Postemergence
In short: as §1

[14] = system: corn (Zea mays); assay: Test A1 postemergence, corn; settings: Postemergence
In short: as §3

[15] = system: ducksalad (Heteranthera limosa); assay: Test B1 flooded paddy test, ducksalad; settings: 250 g ai/ha, Flood, applied to paddy water, 2-leaf stage, visually evaluated after 10 to 14 days
Description: as §2

[16] = system: Oat, Wild (wild oat, Avena fatua); assay: Test A1 postemergence, Oat, Wild; settings: Postemergence
In short: (§4)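 Test compounds were formulated in a non-phytotoxic solvent mixture containing a surfactant. For preemergence, seeds sown in a loam soil–sand blend received a directed soil spray. For postemergence, potted plants in the same soil, 2 to 10 cm tall at the one- to two-leaf stage, were sprayed.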

[17] = system: Oat, Wild (wild oat, Avena fatua); assay: Test A1 preemergence, Oat, Wild
In short: as §3

[18] = system: kochia (Bassia scoparia); assay: Test A1 preemergence, kochia
In short: as §3

[19] = system: ragweed (common ragweed, Ambrosia artemisiifolia); assay: Test A1 postemergence, ragweed; settings: Postemergence
In short: as §4

[20] = system: blackgrass (Alopecurus myosuroides); assay: Test A1 postemergence, blackgrass; settings: Postemergence, 0 to 100 scale (0 no effect, 100 complete control)
In short: as §1

[21] = system: galium (catchweed bedstraw, Galium aparine); assay: Test A1 postemergence, galium; settings: Postemergence
In short: as §1

[22] = system: corn (Zea mays); assay: Test A1 preemergence, corn
In short: as §4

[23] = system: Ryegrass, Italian (Italian ryegrass, Lolium multiflorum); assay: Test A1 postemergence, Ryegrass, Italian; settings: Postemergence
In short: as §1

[24] = system: Foxtail, Giant (giant foxtail, Setaria faberi); assay: Test A1 preemergence, Foxtail, Giant
In short: as §3

[25] = system: kochia (Bassia scoparia); assay: Test A1 postemergence, kochia; settings: Postemergence
In short: as §1

[26] = system: goosegrass (Eleusine indica); assay: Test A1 postemergence, goosegrass; settings: Postemergence
In short: as §1

[27] = system: Pigweed, Palmer (palmer amaranth, palmer pigweed, Amaranthus palmeri); assay: Test A1 postemergence, Pigweed, Palmer; settings: Postemergence
In short: as §4

[28] = 31 g ai/ha, 0 to 100 scale (0 no effect, 100 complete control), 10 days
[29] = 31 g ai/ha, 0 to 100 scale (0 no effect, 100 complete control)
[30] = 125 g ai/ha, 0 to 100 scale, 0 no effect, 100 complete control

Cc1cc(C)c(N(C(=O)OCC(C)C)S(=O)(=O)C(F)(F)F)cc1C1=NOC2CCCC12 (stereo not drawn) [Compound 299]
Plant response rating, Soybean [1, 28]: 40
Plant response rating, Soybean ([1]; 125 g ai/ha, 0 to 100 scale): 50
Plant response rating, Barnyardgrass (0 to 100 scale, 0 is no effect, 100 is complete control) [2]: 95
Plant response rating, Rice (0 to 100 scale, 0 is no effect, 100 is complete control) [3]: 0
Plant response rating, Pigweed, Palmer [4, 29]: 0
Plant response rating, Pigweed, Palmer [4, 30]: 70
Plant response rating, Wheat [5, 29]: 0
Plant response rating, Wheat [5, 30]: 70
Plant response rating, Goosegrass [6, 29]: 60
Plant response rating, Goosegrass [6, 30]: 90
Plant response rating, Ryegrass, Italian [7, 29]: 50
Plant response rating, Ryegrass, Italian [7, 30]: 60
Plant response rating, Wheat [8, 28]: 30
Plant response rating, Wheat ([8]; 125 g ai/ha, 0 to 100 scale): 70
Plant response rating, Blackgrass [9, 29]: 0
Plant response rating, Blackgrass [9, 30]: 30
Plant response rating, Ragweed [10, 29]: 0
Plant response rating, Ragweed [10, 30]: 30
Plant response rating, Soybean [11, 29]: 0
Plant response rating, Soybean [11, 30]: 0
Plant response rating, Foxtail, Giant [12, 28]: 0
Plant response rating, Foxtail, Giant ([12]; 125 g ai/ha, 0 to 100 scale): 30
Plant response rating, Horseweed [13, 28]: 0
Plant response rating, Horseweed ([13]; 125 g ai/ha, 0 to 100 scale): 30
Plant response rating, Corn [14, 28]: 0
Plant response rating, Corn ([14]; 125 g ai/ha, 0 to 100 scale): 0
Plant response rating, Ducksalad (0 to 100 scale, 0 is no effect, 100 is complete control) [15]: 55
Plant response rating, Oat, Wild [16, 28]: 0
Plant response rating, Oat, Wild ([16]; 125 g ai/ha, 0 to 100 scale): 0
Plant response rating, Oat, Wild [17, 29]: 0
Plant response rating, Oat, Wild [17, 30]: 20
Plant response rating, Kochia [18, 29]: 0
Plant response rating, Kochia [18, 30]: 50
Plant response rating, Ragweed [19, 28]: 40
Plant response rating, Ragweed ([19]; 125 g ai/ha, 0 to 100 scale): 70
Plant response rating, Blackgrass ([20]; 31 g ai/ha, 10 days): 0
Plant response rating, Blackgrass ([20]; 125 g ai/ha): 0
Plant response rating, Galium [21, 28]: 40
Plant response rating, Galium ([21]; 125 g ai/ha, 0 to 100 scale): 60
Plant response rating, Corn [22, 29]: 0
Plant response rating, Corn [22, 30]: 0
Plant response rating, Ryegrass, Italian [23, 28]: 30
Plant response rating, Ryegrass, Italian ([23]; 125 g ai/ha, 0 to 100 scale): 50
Plant response rating, Foxtail, Giant [24, 29]: 0
Plant response rating, Foxtail, Giant [24, 30]: 40
Plant response rating, Kochia [25, 28]: 0
Plant response rating, Kochia ([25]; 125 g ai/ha, 0 to 100 scale): 20
Plant response rating, Goosegrass [26, 28]: 30
Plant response rating, Goosegrass ([26]; 125 g ai/ha, 0 to 100 scale): 40
Plant response rating, Pigweed, Palmer [27, 28]: 10
Plant response rating, Pigweed, Palmer ([27]; 125 g ai/ha, 0 to 100 scale): 10
